According to ChEMBL document CHEMBL3098055 (Bioorg Med Chem Lett, 2014):
Bridge positions count the residues as written; N and C are the ends. Square brackets hold non-standard residues; d marks the D form. Peptide text beside a SMILES is read from it. AllylGly = C=CC[C@H](N)C(=O)O

Key:
Assay type in all cases: cell-based
[1] = target: Somatostatin receptor type 5 (Homo sapiens, UniProt P35346); experiment: Displacement of [125I]-somatostatin from human SSTR5 expressed in CHO-K1 cells
[2] = target: Somatostatin receptor type 4 (Homo sapiens, UniProt P31391); experiment: Displacement of [125I]-somatostatin from human SSTR4 expressed in CHO-K1 cells
[3] = target: Somatostatin receptor type 3 (Homo sapiens, UniProt P32745); experiment: Displacement of [125I]-somatostatin from human SSTR3 expressed in CHO-K1 cells
[4] = target: Somatostatin receptor type 2 (Homo sapiens, UniProt P30874); experiment: Displacement of [125I]-somatostatin from human SSTR2 expressed in CHO-K1 cells
[5] = target: Somatostatin receptor type 1 (Homo sapiens, UniProt P30872); experiment: Displacement of [125I]-somatostatin from human SSTR1 expressed in CHO-K1 cells
Chain of Somatostatin receptor type 1 (P30872 whole entry): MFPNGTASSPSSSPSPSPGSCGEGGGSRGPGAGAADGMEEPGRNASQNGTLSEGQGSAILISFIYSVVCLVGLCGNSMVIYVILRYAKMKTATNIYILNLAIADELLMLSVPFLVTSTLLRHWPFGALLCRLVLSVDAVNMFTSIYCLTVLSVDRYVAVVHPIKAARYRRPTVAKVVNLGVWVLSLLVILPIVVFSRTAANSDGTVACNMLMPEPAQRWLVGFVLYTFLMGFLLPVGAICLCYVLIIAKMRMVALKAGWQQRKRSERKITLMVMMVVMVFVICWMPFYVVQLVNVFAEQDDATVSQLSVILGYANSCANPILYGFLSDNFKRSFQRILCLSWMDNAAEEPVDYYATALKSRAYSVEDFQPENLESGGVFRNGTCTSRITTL

Chain of Somatostatin receptor type 5 (P35346 whole entry): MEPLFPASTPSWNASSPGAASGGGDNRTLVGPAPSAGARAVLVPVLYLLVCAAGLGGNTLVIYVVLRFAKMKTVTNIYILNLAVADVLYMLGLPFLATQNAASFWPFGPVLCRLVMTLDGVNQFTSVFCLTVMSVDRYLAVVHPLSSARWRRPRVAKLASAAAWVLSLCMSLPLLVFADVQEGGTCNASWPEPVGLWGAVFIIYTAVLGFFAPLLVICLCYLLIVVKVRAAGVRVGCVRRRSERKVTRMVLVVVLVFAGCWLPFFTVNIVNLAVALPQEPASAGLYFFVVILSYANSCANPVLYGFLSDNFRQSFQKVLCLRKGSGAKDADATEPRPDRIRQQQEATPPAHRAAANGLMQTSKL
Chain of Somatostatin receptor type 3 (P32745 whole entry): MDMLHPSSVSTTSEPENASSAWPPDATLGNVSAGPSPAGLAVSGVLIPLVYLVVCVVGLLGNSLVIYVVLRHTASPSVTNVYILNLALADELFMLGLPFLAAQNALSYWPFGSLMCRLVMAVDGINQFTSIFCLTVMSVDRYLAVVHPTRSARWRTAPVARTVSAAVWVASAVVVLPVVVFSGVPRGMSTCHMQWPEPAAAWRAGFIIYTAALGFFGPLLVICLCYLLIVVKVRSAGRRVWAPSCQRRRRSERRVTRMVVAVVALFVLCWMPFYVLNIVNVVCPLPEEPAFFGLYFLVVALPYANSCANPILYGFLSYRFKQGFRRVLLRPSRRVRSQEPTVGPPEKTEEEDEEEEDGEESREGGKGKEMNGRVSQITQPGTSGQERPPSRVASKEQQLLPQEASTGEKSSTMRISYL
Chain of Somatostatin receptor type 4 (P31391 whole entry): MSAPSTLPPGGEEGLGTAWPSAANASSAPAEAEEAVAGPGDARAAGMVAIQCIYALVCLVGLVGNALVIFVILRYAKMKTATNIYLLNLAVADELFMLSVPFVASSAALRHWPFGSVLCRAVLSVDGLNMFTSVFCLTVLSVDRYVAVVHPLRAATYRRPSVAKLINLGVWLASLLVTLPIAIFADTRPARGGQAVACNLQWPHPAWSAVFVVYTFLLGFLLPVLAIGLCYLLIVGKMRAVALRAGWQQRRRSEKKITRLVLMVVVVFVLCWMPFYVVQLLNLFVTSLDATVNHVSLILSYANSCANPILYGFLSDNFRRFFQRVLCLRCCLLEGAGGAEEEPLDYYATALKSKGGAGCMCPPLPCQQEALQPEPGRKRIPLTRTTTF
Chain of Somatostatin receptor type 2 (P30874 whole entry): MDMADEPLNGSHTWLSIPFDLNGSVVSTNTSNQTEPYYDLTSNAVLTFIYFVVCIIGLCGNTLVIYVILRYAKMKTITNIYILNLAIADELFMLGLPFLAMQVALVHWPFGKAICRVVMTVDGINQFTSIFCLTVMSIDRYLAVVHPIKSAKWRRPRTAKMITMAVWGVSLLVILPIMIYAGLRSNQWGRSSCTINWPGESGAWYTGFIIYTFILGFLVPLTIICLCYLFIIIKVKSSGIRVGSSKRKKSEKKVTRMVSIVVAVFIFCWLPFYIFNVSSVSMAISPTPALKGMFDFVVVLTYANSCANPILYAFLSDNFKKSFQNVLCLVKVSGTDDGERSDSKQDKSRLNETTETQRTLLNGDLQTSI

- Ki [1]: 0.2 nM
- Ki [2]: 1.77 nM
- Ki [3]: 4.24 nM
- Ki [4]: 0.41 nM
- Ki [5]: 0.31 nM
SMILES: C[C@H](N)C(=O)NCC(=O)N[C@H]1C/C=C\C[C@@H](C(N)=O)NC(=O)[C@H](CO)NC(=O)[C@H]([C@@H](C)O)NC(=O)[C@H](Cc2ccccc2)NC(=O)[C@H]([C@@H](C)O)NC(=O)[C@H](CCCCN)NC(=O)[C@H](Cc2c[nH]c3ccccc23)NC(=O)[C@H](Cc2ccccc2)NC(=O)[C@H](Cc2ccccc2)NC(=O)[C@H](CC(N)=O)NC(=O)[C@H](CCCCN)NC1=O (H-AG[AllylGly]KNFFWKTFTS[AllylGly]-NH2; staple (Z) 3-14)
